System: Plasmodium falciparum
Assay: Antimalarial activity against chloroquine-resistant Plasmodium falciparum K14 infected in human red blood cells after 48 hrs by [3H]hypoxanthine incorporation assay
Type: functional, organism-based

SMILES	IC50 [µM]
COc1ccc([C@@H]2[C@H](O[C@@H]3C[C@H](C)CC[C@H]3C(C)C)C(=O)N2[C@@H](C)c2ccccc2)cc1OC	8
CC(C)[C@@H]1CC[C@@H](C)C[C@H]1O[C@@H]1C(=O)N([C@@H](C)c2ccccc2)[C@@H]1/C=C/c1ccccc1	> 50
CC(C)[C@@H]1CC[C@@H](C)C[C@H]1O[C@@H]1C(=O)N([C@@H](C)c2ccccc2)[C@@H]1c1ccc(F)cc1	19
CC(C)[C@@H]1CC[C@@H](C)C[C@H]1O[C@@H]1C(=O)N([C@@H](C)c2ccccc2)[C@@H]1c1ccc(Br)cc1	11
Cc1cccc([C@@H]2[C@H](O[C@@H]3C[C@H](C)CC[C@H]3C(C)C)C(=O)N2[C@@H](C)c2ccccc2)c1	42
CC(C)[C@@H]1CC[C@@H](C)C[C@H]1O[C@@H]1C(=O)N([C@@H](C)c2ccccc2)[C@@H]1c1ccc([N+](=O)[O-])cc1	27
CC(C)[C@@H]1CC[C@@H](C)C[C@H]1O[C@@H]1C(=O)N([C@@H](C)c2ccccc2)[C@@H]1c1ccccc1Cl	36
COc1cccc([C@@H]2[C@H](O[C@@H]3C[C@H](C)CC[C@H]3C(C)C)C(=O)N2[C@@H](C)c2ccccc2)c1	8
C[C@@H](c1ccccc1)N1C(=O)[C@@H](Oc2ccccc2)[C@H]1c1ccc(Cl)cc1	42
COc1ccc(N2C(=O)[C@@H](O[C@@H]3C[C@H](C)CC[C@H]3C(C)C)[C@H]2c2ccc(Cl)cc2)cc1	> 50
COc1ccc(N2C(=O)[C@H](O[C@@H]3C[C@H](C)CC[C@H]3C(C)C)[C@@H]2c2ccc(Cl)cc2)cc1	> 50
COc1ccc([C@@H]2[C@H](O[C@@H]3C[C@H](C)CC[C@H]3C(C)C)C(=O)N2[C@@H](C)c2ccccc2)cc1	13
CC(C)[C@@H]1CC[C@@H](C)C[C@H]1O[C@@H]1C(=O)N([C@@H](C)c2ccccc2)[C@@H]1c1ccccc1[N+](=O)[O-]	21
CC(C)[C@@H]1CC[C@@H](C)C[C@H]1O[C@@H]1C(=O)N([C@@H](C)c2ccccc2)[C@@H]1c1ccc2ccccc2c1	10
C[C@@H](c1ccccc1)N1C(=O)[C@H](Oc2ccccc2)[C@@H]1c1ccc(Cl)cc1	42
CC(C)[C@@H]1CC[C@@H](C)C[C@H]1O[C@@H]1C(=O)N([C@@H](C)c2ccccc2)[C@@H]1c1ccc(Cl)cc1	33
Cc1ccc([C@@H]2[C@H](O[C@@H]3C[C@H](C)CC[C@H]3C(C)C)C(=O)N2[C@@H](C)c2ccccc2)cc1	35
